{"source": "patent US7485651B2", "about": "“Compounds with activity on muscarinic receptors” (Acadia Pharmaceuticals, Inc., priority 1998, dated 2009)", "key": {"[1]": {"target": "T1, α-adrenergic receptor subtype 2A (Homo sapiens, UniProt P08913)", "T1 sequence (P08913 1-465)": "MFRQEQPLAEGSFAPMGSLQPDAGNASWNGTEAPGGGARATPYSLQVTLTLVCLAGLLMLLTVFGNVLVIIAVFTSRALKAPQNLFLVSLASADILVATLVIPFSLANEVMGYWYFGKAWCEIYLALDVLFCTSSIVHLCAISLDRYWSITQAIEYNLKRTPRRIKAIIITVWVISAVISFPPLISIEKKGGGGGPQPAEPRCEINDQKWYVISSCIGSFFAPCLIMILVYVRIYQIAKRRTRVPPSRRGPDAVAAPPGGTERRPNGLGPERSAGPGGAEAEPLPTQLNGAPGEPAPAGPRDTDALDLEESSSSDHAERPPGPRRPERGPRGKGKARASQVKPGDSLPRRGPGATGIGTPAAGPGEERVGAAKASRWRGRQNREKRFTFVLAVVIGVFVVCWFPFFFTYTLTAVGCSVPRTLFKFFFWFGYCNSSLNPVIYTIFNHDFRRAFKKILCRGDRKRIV", "test": "Test against other receptors: α-adrenergic 2A", "assay_type": "cell-based"}, "m5 receptor": {"target": "T2, m5 receptor (Homo sapiens, UniProt P08912)", "T2 construct": "expressed in transfected cells; host or cells: NIH 3T3 (ATCC CRL 1658)", "T2 sequence (P08912 1-532)": "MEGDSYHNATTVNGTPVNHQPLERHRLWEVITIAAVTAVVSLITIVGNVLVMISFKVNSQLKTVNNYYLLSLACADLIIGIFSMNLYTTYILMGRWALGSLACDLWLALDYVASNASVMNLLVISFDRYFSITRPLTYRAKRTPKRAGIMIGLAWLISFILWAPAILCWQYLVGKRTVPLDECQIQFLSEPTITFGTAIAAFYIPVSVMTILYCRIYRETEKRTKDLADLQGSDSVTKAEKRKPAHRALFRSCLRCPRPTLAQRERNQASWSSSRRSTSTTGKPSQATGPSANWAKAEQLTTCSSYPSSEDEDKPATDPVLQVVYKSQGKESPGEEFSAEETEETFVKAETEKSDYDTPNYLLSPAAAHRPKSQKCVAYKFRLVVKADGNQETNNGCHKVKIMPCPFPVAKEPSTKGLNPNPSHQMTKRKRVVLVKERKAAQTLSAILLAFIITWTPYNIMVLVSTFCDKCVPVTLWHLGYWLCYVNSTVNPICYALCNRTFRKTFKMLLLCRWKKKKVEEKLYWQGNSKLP", "test": "R-SAT / NIH 3T3 cells transfected with m5 muscarinic receptor", "assay_type": "cell-based", "from_the_text": "A particularly convenient functional assay system is the receptor selection and amplification assay disclosed in U.S. Pat. No. 5,707,798 describing a method of screening for bioactive compounds by utilizing the ability of cells transfected with receptor DNA, e.g. coding for the different muscarinic subtypes, to amplify in the presence of a ligand of the receptor. Cell amplification is detected as increased levels of a marker also expressed by the cells.\nTransfection of cells with muscarinic receptor DNAs (general procedure) NIH 3T3 cells (available from the American Type Culture Collection as ATCC CRL 1658) were grown at 37° C. in a humidified atmosphere (5% CO2) incubator in Dulbecco's modified Eagle's medium (DMEM) supplemented with 4.5 g/l glucose, 4 mM glutamine, 50 units/m1 penicillin, 50 units/m1 streptomycin (available from Advanced Biotechnologies, Inc., Gaithersburg, Md.) and 10% calf serum (available from Sigma, St. Louis, […].). The cells were treated with trypsin-EDTA, spun down and plated at 2×10^6 per 15 cm dish in 20 m1 of DMEM containing 10% calf serum.\nThe m1-m5 muscarinic receptor subtypes were cloned substantially as described by Bonner et al., Science 237, 1987, p. 527, and Bonner et al., Neuron 1, 1988, p. 403. For the m2 and m4 receptors, the cells were co-transfected with DNA encoding a chimera between the Gq protein and the five carboxy-terminal amino acids of the Gi protein (the Gq-i5 construct is described by Conklin et al., Nature 363, 1993, p.274).\nOn day one, the cells were transfected using the Superfect transfection reagent (available from Qiagen, Valencia, Calif.) in accordance with the manufacturer's instructions. Receptor DNA, β-gal DNA (pSI-β-galactosidase available from Promega, Madison, Wis.), chimeric Gq-i5 DNA for the m2 and m4 receptor subtype assays, and salmon sperm DNA (available from Sigma, St. Louis, […].) as filler to a total of 20 μg DNA was added per plate. Prior to addition to the plates, 60 μl Superfect was added to the DNA and mixed thoroughly by pipetting up and down several times. The mixture was incubated at room temperature for 10-15 minutes. The media were aspirated, and 12 ml fresh DMEM containing 10% calf serum and 50 units/m1 penicillin/streptomycin was added to the plates. The DNA-Superfect solution was mixed once more with a pipette and added to the plate which was swirled to distribute the DNA mixture evenly over the surface. The cells were incubated overnight at 37° C. and 5% CO2. After incubation, the media were aspirated and the plates were rinsed once with a 15 m1 volume of Hank's Buffered Saline. The plates were swirled to ensure thorough rinsing. 20 m1 fresh DMEM supplemented with 10% calf serum and 50 units/m1 penicillin/streptomycin was added to the plates. The cells were incubated for 24-48 hours until the plates were 100% confluent.\nAssay of NIH 3T3 cells transfected with muscarinic receptor subtypes (general procedure) DMEM containing 2% Cyto-SF3 was heated at 37° C. in a water bath under sterile conditions. Sterile working stock solutions of test compounds to be assayed were prepared by diluting the compounds in DMEM to 8× the final concentration for testing. The compound (carbachol) to be included in the assay as a positive control was also diluted in DMEM to 8× the final concentration. 50 μL of the DMEM containing 2% Cyto-SF3 was added to each well of 96-well microtiter plates under sterile conditions. Then, 16 of compound solutions were added to the top wells of the plates, and dilution of the solutions was performed by taking 16 μl of the compound solutions from the top wells and pipetting them into the next row of wells. This procedure was repeated with each subsequent row of wells, except that 50 μl medium alone was added to the baseline control wells (the wells that contain medium and cells, but not test compounds) and plate control wells (wells containing medium, but not test compounds and cells). […]"}}, "data": [{"molecule": "CCCCC1CCN(CCCC(=O)c2ccccc2C)CC1", "note": "[Compound A, 4-n-Butyl-1-[4-(2-methylphenyl)-4-oxo-1-butyl]piperidine]", "values": [{"measurement": "agonist activity", "setting": "[1]", "result": "no significant activity"}, {"measurement": "inhibition of receptor responses (antagonist experiments)", "setting": "[1]", "result": "did not inhibit"}, {"measurement": "agonist activity at the m5 receptor", "setting": "m5 receptor", "result": "only activated the m1 receptor subtype"}, {"measurement": "Emax at 1.5 µM", "setting": "m5 receptor; NIH3T3, m5, compound at 1.5 μM, maximum = response to 10 μM carbachol, read-out: Cellular response as a percentage of the maximum response of the cells", "result": 3, "unit": "%"}, {"measurement": "antagonism of carbachol-induced responses", "setting": "m5 receptor; m5", "result": "not an antagonist"}]}]}
